Data as given in patent US12617776B2 (priority 2020, dated 2026).
≈ marks a conversion by molar mass, not a printed value. Entries after “also recorded” stand apart in the source; their conditions may differ. Where a name gives a salt, the structure may show the parent alone.

Key:
physchem [1] = conditions: 25 °C, pH 6.6, water, thermodynamic from solid
Method: The mixture was stirred and after 30 minutes a thick suspension was formed. Further aliquots (20 μL) of water were added until a fine suspension was formed. This was stirred at 25° C. overnight and filtered to yield a clear solution. The solution was weighed and evaporated to constant weight to determine the solubility.

physchem [2] = experiment: physchem
Method: The aliquot volumes were typically 25-100 μL.
From the infrared (IR) transmission data of the sample vials, dissolution and precipitation events were recorded as the point of complete transmission of IR and the onset of turbidity by IR respectively.
Samples were held at ambient temperature for 18 hours to maximize the chance of precipitation. Any recoverable solids were analyzed by XRPD.

physchem [3] = conditions: water, thermodynamic from solid
Method: The aliquot volumes were typically 10-20 μL. Complete dissolution of the test material was determined by visual inspection. The solubility was estimated from these experiments based on the total solvent used to provide complete dissolution.

[4] = Humidity and temperature stressing of AAT-730 free base (XRPD, 1H NMR); type: physicochemical; conditions: for XRPD analysis of post-stressed sample (physical form): 7 days
Method: The stability was also tested at a range of elevated relative humidity conditions for 7 days.

[5] = Solubility estimation of AAT-730 by aliquot addition; type: physicochemical; conditions: for Solubility range: 20° C.
Method: The aliquot volumes were typically 20-200 μL. […] Samples were held at ambient temperature for at least 18 hours to maximize the chance of precipitation. Any recoverable solids were analyzed by XRPD.

[6] = Thermal stressing of AAT-730 free base forms (Method 2-9); type: physicochemical; conditions: for XRPD after thermal stress: sealed vial, several days
[7] = Salt screening experiments of AAT-730 (XRPD of isolated solids); conditions: salt screen
Method: Solutions of the free base in the chosen solvent were added to either solutions of the salt former, or if the salt was not soluble in the solvent, slurries of the salt formers. Any solids which precipitated were recovered and analyzed by XRPD analysis to determine if the solid was crystalline.
The required acid (1 molar equivalent) was added to each HPLC vial and the API stock solution (containing 30 mg of API) was added. The mixtures were stirred at 300 rpm (ambient temperature) for up to 16 hours. Any solids which precipitated were isolated by centrifugation, solvent decanted and solids dried with thin strips of filter paper prior to analysis by XRPD. Any solutions were evaporated to dryness and solids analyzed by XRPD. Gels were either triturated or temperature cycled in MTBE.
API (30 mg), acid co-former (1 mol. eq.) and ethanol (300 μL) were added to HPLC vials and stirred at 40° C. for up to 16 hours. Solids were recovered by centrifugation, solvent decanted and dried with thin strips of filter paper prior to analysis by XRPD. Solutions were evaporated to dryness.
Gels isolated from the screening experiments were triturated in either MTBE or EtOAc to induce precipitation. MTBE or EtOAc (200 μL) was added to the gel and stirred at 40° C. for up to 3 hours prior to cooling to ambient and stirring for up to 48 hours. Any solids were isolated by centrifugation, solvent decanted and solids dried with thin strips of filter paper prior to analysis by XRPD. Any solutions were evaporated to dryness.
Gels isolated from screening experiments were temperature cycled in MTBE according to the following program: • Heating from 20° C. to 40° C. at 0.2° C./minute. • Cooling to 20° C. at 0.1° C./minute. • Stirring speed 400 rpm.
The vials were sealed and the contents milled using a Fritsch Pulverisette 5 planetary mill (30 repetitions of 20 minutes milling at 400 rpm and 20 minutes pause). The resultant material was analyzed using XRPD.
Some of the acid co-formers had pKa values which were suitable for forming either hemi or bis-salts and experiments were carried out using these acids. Crystalline solids were isolated from the experiments using 0.5 mol. eq. of EDSA but these appeared to be composed of polymorphs of the free base and salt formation hadn't occurred with 0.5 mol. eq. of EDSA. The EDSA salt formed with 2 mol. eq. of EDSA yielded solids with the same XRPD pattern as the mono-EDSA salt. Two different crystalline salts were isolated from the reactions with HCl and these may be the mono and bis-HCl salts, however stoichiometry cannot be determined by ^1H NMR. The salt formation with MSA yielded the bis-MSA salt and this is discussed in Example 3-16. The salt isolated with glutaric acid has the same XRPD pattern as the salt isolated with 1 mol. eq. of glutaric acid and is a mono-glutarate salt (Example 3-17). A solid was isolated from the experiment with 2 mol. eq. of sulfuric acid and this may be a sulfate.

CN(C)CCn1c(CC(C)(C)C)nc2cc(S(=O)(=O)C3CN(CCO)C3)ccc21 [AAT-730 HCl salt, HCl salt of 2-[3-({1-[2-(dimethylamino)ethyl]-2-(2,2-dimethylpropyl)-1H-1,3-benzodiazol-5-yl}sulfonyl)azetidin-1-yl]ethan-1-ol]
solubility thermodynamic (physchem [1]): ~220 mg/mL | solubility (physchem [2]; 20 °C, aqueous with cosolvent or surfactant or cyclodextrin, thermodynamic from solid, Solubility at 20° C., EtOH/water (50/50), aliquot addition): 205 to 273 mg/mL | solubility (physchem [2]; 20 °C, organic solvent or mixture, thermodynamic from solid, Solubility at 20° C., DMSO/water (80/20, Aw at most 0.27), aliquot addition): 22 to 25 mg/mL | solubility (physchem [2]; 20 °C, organic solvent or mixture, thermodynamic from solid, Solubility at 20° C., THF/water (13/1, Aw at most 0.9), aliquot addition): < 20 mg/mL | solubility (physchem [2]; 20 °C, organic solvent or mixture, thermodynamic from solid, Solubility at 20° C., acetone, aliquot addition): < 20 mg/mL | solubility (physchem [2]; 20 °C, organic solvent or mixture, thermodynamic from solid, Solubility at 20° C., acetone/water (20/1, Aw at most 0.6), aliquot addition): < 20 mg/mL | solubility (physchem [2]; 20 °C, organic solvent or mixture, thermodynamic from solid, Solubility at 20° C., acetonitrile, aliquot addition): < 21 mg/mL | solubility (physchem [2]; 20 °C, organic solvent or mixture, thermodynamic from solid, Solubility at 20° C., dichloromethane, aliquot addition): < 20 mg/mL | solubility (physchem [2]; 20 °C, organic solvent or mixture, thermodynamic from solid, Solubility at 20° C., ethanol, aliquot addition): < 21 mg/mL | solubility (physchem [2]; 20 °C, organic solvent or mixture, thermodynamic from solid, Solubility at 20° C., methanol, aliquot addition): < 20 mg/mL | solubility (physchem [2]; 20 °C, organic solvent or mixture, thermodynamic from solid, Solubility at 20° C., tetrahydrofuran, aliquot addition): < 20 mg/mL | solubility (physchem [2]; aqueous with cosolvent or surfactant or cyclodextrin, thermodynamic from solid, solubility): ≥ 20 mg/mL | solubility (physchem [2]; organic solvent or mixture, thermodynamic from solid, solubility, DMSO/water (80/20), ambient temperature, aliquot addition): ≥ 20 mg/mL

CN(C)CCn1c(CC(C)(C)C)nc2cc(S(=O)(=O)C3CN(CCO)C3)ccc21 [AAT-730 HCl salt Pattern 1]
solubility (physchem [2]; DMSO/water (80/20), ambient temperature, aliquot addition): greater than or equal to 20 mg/mL | solubility (physchem [3]): 164 to 205 mg/mL

CN(C)CCn1c(CC(C)(C)C)nc2cc(S(=O)(=O)C3CN(CCO)C3)ccc21 [AAT-730, 2-[3-({1-[2-(dimethylamino)ethyl]-2-(2,2-dimethylpropyl)-1H-1,3-benzodiazol-5-yl}sulfonyl)azetidin-1-yl]ethan-1-ol]
1H NMR analysis of post-stressed samples ([4]; 1 week at 25° C./60% RH, 40° C./75% RH, 70° C./75% RH): no change | XRPD analysis of post-stressed sample (physical form) ([4]; 25° C./60% RH): remained as an anhydrate | XRPD analysis of post-stressed sample (physical form) ([4]; 40° C./75% RH, listed as AAT-730 free base): change in form to the hydrate; also recorded: converted to a hydrate | XRPD analysis of post-stressed sample (physical form) ([4]; 70° C./75% RH, listed as AAT-730 free base): change in form to the hydrate; also recorded: converted to a hydrate | Solubility range ([5]; 2-propanol, isopropyl alcohol (IPA)): 81 to 87 mg/mL | Solubility range ([5]; EtOH/water (96/4, Aw at most 0.25)): 313 to 417 mg/mL | Solubility range ([5]; MeOH/water (84/16, Aw at most 0.44)): 638 to 1275 mg/mL | Solubility range ([5]; THF/water (96/4, Aw at most 0.74)): 410 to 615 mg/mL | Solubility range ([5]; acetone): 118 to 157 mg/mL | Solubility range ([5]; acetone/water (50/50, Aw at most 0.91)): 618 to 1235 mg/mL | Solubility range ([5]; acetonitrile (ACN)): 145 to 164 mg/mL | Solubility range ([5]; anisole): 58 to 60 mg/mL | Solubility range ([5]; cyclohexane): <24 mg/mL | Solubility range ([5]; dichloromethane (DCM)): 360 to 504 mg/mL | Solubility range ([5]; dimethyl sulfoxide (DMSO)): 242 to 303 mg/mL | Solubility range ([5]; dioxane): 117 to 129 mg/mL | Solubility range ([5]; ethanol (EtOH)): 213 to 256 mg/mL | Solubility range ([5]; ethyl acetate (EtOAc)): 27 to 28 mg/mL | Solubility range ([5]; methanol (MeOH)): >510 mg/mL | Solubility range ([5]; methyl isobutyl ketone (MIBK)): <26 mg/mL | Solubility range ([5]; methyl tert-butyl ether (MTBE)): <26 mg/mL | Solubility range ([5]; tetrahydrofuran (THF)): 246 to 492 mg/mL | solubility ([5]; thermodynamic from solid, water, ambient temperature, aliquot addition, read-out: aqueous solubility): 367 to 514 mg/mL (≈ 868 to 1220 mM) | Solubility range ([5]; toluene): <25 mg/mL | XRPD after thermal stress ([6]; 40° C.): Pattern A + | XRPD after thermal stress ([6]; 60° C.): Pattern A + | physical stability to thermal stressing ([6]; at the temperatures tested (40 or 60° C.)): physically unstable | XRPD Result ([7]; EDSA 2 mol. eq., THF, sample CAT0001E-019-04): AAT-730 EDSA | XRPD Result ([7]; H2SO4 2 mol. eq., THF, sample CAT0001E-019-08): possible sulfate Pattern B | XRPD Result ([7]; HCl 2 mol. eq., EtOH, sample CAT0001E-019-05B): AAT-730 HCl Pattern B | XRPD Result ([7]; HCl 2 mol. eq., THF, sample CAT0001E-019-05): AAT-730 HCl Pattern A** | XRPD Result ([7]; L-aspartic acid 0.5 mol. eq., THF, sample CAT0001E-019-09): API | XRPD Result ([7]; L-glutamic acid 0.5 mol. eq., THF, sample CAT0001E-019-11): API | XRPD Result ([7]; MSA 2 mol. eq., THF, sample CAT0001E-019-06): AAT-730 MSA Pattern B | XRPD Result ([7]; glutaric acid 0.5 mol. eq., THF, sample CAT0001E-019-12): AAT-730 glutarate

CN(C)CCn1c(CC(C)(C)C)nc2cc(S(=O)(=O)C3CN(CCO)C3)ccc21 [AAT-730 HCl salt Pattern 2]
solubility (physchem [2]; pH 6, water, thermodynamic from solid, aqueous solubility, water, pH 6-7, aliquot addition): 197 to 263 mg/mL
